Assay results reported in patent US9023841B2, “Compositions and methods for the treatment of asthma and associated disorders” (University of Southern California, priority 2011, dated 2015).
Entries after “also recorded” stand apart in the source; their conditions may differ.

Columns and labels:
BALB/c mice [1] = test: OVA-induced AHR in BALB/c mice treated with autophagy inducers or inhibitor (whole body plethysmography, PenH); format: in vivo; conditions: i.p., DCMI 1 mg/kg, tamoxifen 100 μM, clonidine 0.1 mg/kg, carbamazepine 20 mg/kg, compared to OVA controls
Procedure: FIGS. 3A to 3E illustrate altered development of AHR and lung inflammation in BALB/c mice treated with autophagy inducers and inhibitor. FIG. 3A is a schematic for the sensitization and challenge protocol with administration of autophagy inhibitors and inducers via i.p. injection. FIGS. 3B and C show AHR was determined by whole body plethysmography and is expressed as mean PenH in the presence or absence of (FIG. 3B) autophagy inhibitor desmethylclomipramine (“DCMI”) 1 mg/kg or (FIG. 3C) autophagy inducers tamoxifen 100 μM, clonidine 0.1 mg/kg or carbamazepine 20 mg/kg. FIGS. 3D and E are a quantitative determination of cellular infiltration into BAL was determined by cytospin preparation in the presence or absence of (FIG. 3D) autophagy inhibitor and (FIG. 3E) autophagy inducers. Representative data from two independent experiments with 3 mice per group, expressed as mean±SEM. PBS refer to naïve BALB/c animals. Figure legend: Total: Total of number of cells in the BAL, PMN: polymorphonuclear cells, EOS: Eosinophils, MACRO: Macrophages, Lymph: Lymphocytes
Autophagy inducers (Carbamazepin, Tamoxifen, and Clonidine) and inhibitors (DCMI) were administered on days 10 to 13 (FIG. 9A). […] This was the opposite when treated with the autophagy inducers (Carbamazepin, Tamoxifen, and Clonidine) (FIG. 9C). Therefore, autophagy is an important mediator in AHR.
There are many reported small molecule inducers and inhibitors of autophagy (Balgi et al. (2009) PLoS One 4:e7124; Mizushima et al. (2006) Autophagy 2:302-304; Vooijs et al. (2001) EMBO Rep 2:292-297; Fujita et al. (2008) Mol Biol Cell 19:2092-2100; Kuma et al. (2004) Nature 432:1032-1036; Inoue et al. (2011) Biochem Biophys Res Commun 405:13-18). In preliminary studies, Applicant has used a range of different inducers (tamoxifen (Akbari et al. (2001) Nat Immunol 2:725-731), clonidine (Mizushima et al. (2006) Autophagy 2:302-304) and carbamazepine (Renna et al. (2010) J Biol Chem 285:11061-11067)) and one inhibitor (desmethylclomipramine (“DCMI”) (Balgi et al. (2009) PLoS One 4:e7124)). A standard sensitization and challenge protocol was used for the induction of AHR in BALB/c (FIG. 3A). […] This is in agreement with Applicant's findings using the Atg5Δ animals that inhibition of autophagy has a deleterious effect on lung function. When autophagy is induced (with tamoxifen, clonidine or carbamazepine) AHR after sensitization and challenge with OVA is reduced compared to controls (FIG. 3C). […] When autophagy is inhibited total cell numbers in the BAL are increased (FIG. 3D) in contrast, in the presence of autophagy inducers total cell numbers and in particular eosinophils are reduced (FIG. 3E).

BALB/c mice [2] = test: Cellular infiltration into BAL by cytospin preparation, OVA model; format: in vivo; conditions: OVA sensitized and challenged BALB/c, i.p. treatment
Procedure: FIGS. 3A to 3E illustrate altered development of AHR and lung inflammation in BALB/c mice treated with autophagy inducers and inhibitor. FIG. 3A is a schematic for the sensitization and challenge protocol with administration of autophagy inhibitors and inducers via i.p. injection. FIGS. 3B and C show AHR was determined by whole body plethysmography and is expressed as mean PenH in the presence or absence of (FIG. 3B) autophagy inhibitor desmethylclomipramine (“DCMI”) 1 mg/kg or (FIG. 3C) autophagy inducers tamoxifen 100 μM, clonidine 0.1 mg/kg or carbamazepine 20 mg/kg. FIGS. 3D and E are a quantitative determination of cellular infiltration into BAL was determined by cytospin preparation in the presence or absence of (FIG. 3D) autophagy inhibitor and (FIG. 3E) autophagy inducers. Representative data from two independent experiments with 3 mice per group, expressed as mean±SEM. PBS refer to naïve BALB/c animals. Figure legend: Total: Total of number of cells in the BAL, PMN: polymorphonuclear cells, EOS: Eosinophils, MACRO: Macrophages, Lymph: Lymphocytes […]

[3] = system: moderate to severe patients with asthma; conditions: clinical trial; cited from earlier work
BALB/c mice [4] = test: Acute OVA-induced AHR (PenH, methacholine challenge), a4-vFLIP peptide; format: in vivo; conditions: acute OVA model, 300 μg i.p. days 11 to 13, compared to OVA+TAT pep, P<0.003
Procedure: Briefly on day 1, naïve BALB/c mice (N=5 per group) received an intraperitoneal (i.p.) injection with ovalbumin (OVA) ([…]) in Alum (2 mg). After resting for 10 days, mice were treated intranasally (i.n.) with OVA (50 μg) and i.p. with the autophagy inducer α4-TAT-vFLIP ([…]) on days 11 to 13. On day 14, the enhanced pause (PenH) variable was measured to determine airway hyperreactivity (AHR).
Briefly, administration of alpha4-TAT-vFLIP (a.k.a. a4-vFLIP) peptide restores lung function in an acute model of OVA induced asthma. Increasing doses of methacholine, a muscarinic receptor agonist to induce AHR, was administered to the different treatment groups of mice and the PenH was determined. […] Ctrl group (dark triangles) after methacholine challenge. […] Therefore, the autophagy peptide inducer a4-vFLIP was able to reduce AHR after OVA challenge.

BALB/c mice [5] = test: Acute HDM-induced AHR (PenH, methacholine challenge), a4-vFLIP peptide; format: in vivo; conditions: acute HDM model, 300 μg i.p. days 13 to 15, compared to HDM+TAT pep, P<0.003
Procedure: FIG. 9D illustrates a protocol to induce acute AHR by HDM. On day 1, naïve BALB/c mice (N=5 per group) received an intranasal (i.n.) injection with house dust mite (HDM) ([…]). After resting for 6 days, mice were treated intranasally (i.n.) with HDM ([…]) from days 7 to 14 and i.p. with the autophagy inducer a4-TAT-vFLIP (300 μg) on days 13 to 15. On day 16, the enhanced pause (PenH) variable was measured to determine airway hyperreactivity (AHR).
Increasing doses of methacholine, a muscarinic receptor agonist to induce AHR, was administered to the different treatment groups of mice and the PenH was determined. […] Ctrl group (dark triangles) after methacholine challenge. […] Therefore, the autophagy peptide inducer was able to reduce AHR after HDM challenge.

BALB/c mice [6] = test: Lung histology (hematoxylin and eosin), HDM model; format: in vivo; conditions: HDM+vFLIP compared to HDM alone
Description: (§1) Thereafter, lung sections were stained with hematoxylin and eosin (HE) from the different groups in the HDM and OVA models. Airway inflammation and remodeling were decreased in the HDM/OVA+vFLIP compared to OVA/HDM alone based on smooth muscle hyperplasia, epithelial cell proliferation, subepithelial fibrosis and basement membrane thickening.

BALB/c mice [7] = test: Lung histology (hematoxylin and eosin), OVA model; format: in vivo; conditions: OVA+vFLIP compared to OVA alone
Description: as §1

BALB/c mice [8] = test: Chronic OVA-induced AHR (PenH); format: in vivo; conditions: TAT as irrelevant peptide control
Procedure: BALB/c mice were treated with OVA to induce chronic AHR and administered a4-TAT-vFLIP (as autophagy inducer) and TAT (as irrelevant peptide, control). AHR was assessed by Pen H (enhanced pause).

Compound: CNCCCN1c2ccccc2CCc2ccc(Cl)cc21 [DCMI, desmethylclomipramine]
- AHR (mean PenH) after sensitization and challenge with OVA (BALB/c mice [1]): greatly increased; also recorded: significant increase
- total cell numbers in the BAL (BALB/c mice [2]): increased

Compound: NC(=O)N1c2ccccc2C=Cc2ccccc21 [carbamazepine]
- AHR (mean PenH) after sensitization and challenge with OVA (BALB/c mice [1]): reduced
- AHR (mean PenH) after sensitization and challenge with OVA (BALB/c mice [1]; listed as Carbamazepin): opposite
- efficacy for the treatment of asthma [3]: improve asthma; also recorded: high efficacy

Compound: Clc1cccc(Cl)c1N=C1NCCN1 [clonidine]
- AHR (mean PenH) after sensitization and challenge with OVA (BALB/c mice [1]): reduced
- AHR (mean PenH) after sensitization and challenge with OVA (BALB/c mice [1]; listed as Clonidine): opposite

Compound: CC/C(=C(\c1ccccc1)c1ccc(OCCN(C)C)cc1)c1ccccc1 [tamoxifen]
- AHR (mean PenH) after sensitization and challenge with OVA (BALB/c mice [1]): reduced
- AHR (mean PenH) after sensitization and challenge with OVA (BALB/c mice [1]; listed as Tamoxifen): opposite

Compound: RRRQRRKKRGY-G-LMNSFVCLIVSS (RRRQRRKKRGYGLMNSFVCLIVSS) [a4-vFLIP, autophagy peptide inducer, 24aa TAT-fused α4 vFLIP peptide]
- AHR (PenH) after methacholine challenge (BALB/c mice [4]): statistically significant reduction
- AHR (PenH) after methacholine challenge (BALB/c mice [5]): statistically significant reduction
- Airway inflammation and remodeling (smooth muscle hyperplasia, epithelial cell proliferation, subepithelial fibrosis, basement membrane thickening) (BALB/c mice [6]): decreased
- Airway inflammation and remodeling (smooth muscle hyperplasia, epithelial cell proliferation, subepithelial fibrosis, basement membrane thickening) (BALB/c mice [7]): decreased
- chronic AHR (PenH) (BALB/c mice [8]): decreased levels of AHR
